From patent publication US20230026577A1, “Ophthalmic Pharmaceutical Compositions” (Vanda Pharmaceuticals Inc., priority 2019, published 2023)

Assays:
[1] = Forced degradation studies of the compound of Formula I; assay type: physicochemical
From the text: The formation of the compound of Formula II is slowed and/or eliminated by inclusion of an "antioxidant system," as described herein, in the novel ophthalmic solution compositions described herein.

[2] = Solubility of the compound of Formula I in various materials (HPLC with UV detector); assay type: physicochemical
Method: The solubility of the compound of Formula I in various materials is determined.

Formation of the compound of Formula II [1]: not formed
solubility ([2]; 0.2% poloxamer in water, aqueous with cosolvent or surfactant or cyclodextrin): 10 µg/mL
solubility ([2]; 0.5% polyoxyl 40 hydrogenated castor oil in water, aqueous with cosolvent or surfactant or cyclodextrin): 70 µg/mL
solubility ([2]; 1% polysorbate-80 in water, aqueous with cosolvent or surfactant or cyclodextrin): 100 µg/mL
solubility ([2]; 1.4% polyvinyl alcohol in water, aqueous with cosolvent or surfactant or cyclodextrin, 1.4% Poly Vinyl Alcohol in water): 10 µg/mL
solubility ([2]; 5% polyoxyl 35 castor oil in water, aqueous with cosolvent or surfactant or cyclodextrin): 480 µg/mL
solubility ([2]; 7% polyoxyl 40 stearate in water, aqueous with cosolvent or surfactant or cyclodextrin): 620 µg/mL
solubility ([2]; castor oil, oil or lipid): 1090 µg/mL
solubility ([2]; glycerine, organic solvent or mixture): 100 µg/mL
solubility ([2]; mineral oil, oil or lipid): 40 µg/mL
solubility ([2]; polyethylene glycol 400 (PEG-400), organic solvent or mixture): 14500 µg/mL
solubility ([2]; propylene glycol (PG), organic solvent or mixture): 4960 µg/mL
solubility ([2]; purified water, water): < 10 µg/mL
SMILES: CNc1nc(Nc2ccccc2)nc(OCC(F)(F)C(F)F)n1 [Formula I, N^2-methyl-N^4-phenyl-6-(2,2,3,3-tetrafluoropropoxy)-1,3,5-triazine-2,4-diamine]
